The values that follow come from PMC8287724, “Reducing Auditory Nerve Excitability by Acute Antagonism of Ca^2+-Permeable AMPA Receptors” (Frontiers in Synaptic Neuroscience, 2021).

As a reminder, the IC50 is the concentration that gives 50% inhibition.

Structures are written as SMILES.

One assay addresses T1, M5 acetylcholine GPCR (Homo sapiens, UniProt P08912).
T1 construct: host or cells: CHO cells
Kind of assay: Radioligand binding assay, M5 receptor (transfected CHO cells). The conditions noted are these: antagonist 1 μM. As for the experimental part: Binding assays were conducted to evaluate the affinity of test compounds IEM-1460 and IEM-1925 (Eurofins Scientific, Inc.) for 15 targets: the human alpha-1 adrenergic (A1) receptor, histaminergic (H)-2 and−3 receptors, and muscarinic acetylcholine receptors-1 to−5 in transfected CHO cells by radioligand binding. The neuronal α4β2 and neuronal α7 cholinergic acetylcholine receptors were tested in transfected SH-SY5Y cells. The histaminergic-1 and−4 receptors were tested in transfected HEK-293 cells. Ion channel testing for AMPA and N-methyl-D-aspartate (NMDA) was performed in cells from the rat cerebral cortex. […] Non-specific binding was determined in the presence of 1 μM of DCPX. […] The filters were dried and then counted for radioactivity in a scintillation counter (Topcount, Packard) using a scintillation cocktail (Microscint 0, Packard). The results are expressed as a percent inhibition of the control radioligand specific binding: 100-[(measured specific binding)/(control specific binding) × 100]. […]
We tested the metabolic stability of the compounds with in vitro liver microsome stability assays (Table 1, right). […] We evaluated the compounds for potential toxicity with assays that test for inhibition of off-target ion channels and receptors. […]

For assay [1], the system named is pyramidal cells (expressing mainly GluA2-containing CI-AMPARs). Details: method as in Tikhonov et al., 2000. Particulars: rat hippocampus ref Tikhonov et al., 2000; cited from earlier work.

T1 sequence (P08912 whole entry): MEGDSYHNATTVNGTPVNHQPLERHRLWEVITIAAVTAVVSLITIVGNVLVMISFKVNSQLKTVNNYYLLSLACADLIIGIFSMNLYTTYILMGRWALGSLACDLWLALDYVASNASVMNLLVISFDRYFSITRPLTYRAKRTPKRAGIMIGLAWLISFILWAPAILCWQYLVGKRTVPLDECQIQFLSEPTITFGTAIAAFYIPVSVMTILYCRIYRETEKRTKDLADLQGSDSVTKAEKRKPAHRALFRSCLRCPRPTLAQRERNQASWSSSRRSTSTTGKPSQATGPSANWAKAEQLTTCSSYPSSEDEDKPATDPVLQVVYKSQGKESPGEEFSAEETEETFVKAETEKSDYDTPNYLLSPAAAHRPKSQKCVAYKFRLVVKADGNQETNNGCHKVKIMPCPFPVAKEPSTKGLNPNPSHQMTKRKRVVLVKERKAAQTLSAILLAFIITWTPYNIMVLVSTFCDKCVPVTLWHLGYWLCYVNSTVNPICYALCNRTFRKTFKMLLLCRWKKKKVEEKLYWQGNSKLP

Consider `C[N+](C)(C)CCCCCNCC12CC3CC(CC(C3)C1)C2` [IEM-1460], for which the “Mean% inhibition (N = 2) of radioligand binding” value on M5 acetylcholine GPCR is 5.2%. Also, the IC50 in assay [1] was above 500 µM.
Regarding `NCCCCCNC1(c2ccccc2)CCCCC1` [IEM-1925], the “Mean% inhibition (N = 2) of radioligand binding” value at M5 acetylcholine GPCR is recorded as below 5%. Moreover, the IC50 in assay [1] was above 200 µM.
